Assay results published in US20260021196A1, “HOMOGENEOUS ANTIBODY-CONJUGATES WITH HIGH PAYLOAD LOADING” (SYNAFFIX B.V., priority 2023, published 2026).

Experiments:
Format in all cases: cell-based
MDA-MB-231 (HER2−) cells = assay: In vitro cytotoxicity, negative control cell line (Examples 131-133); details: Homo sapiens, MDA-MB-231, 120 h, Table 8 / FIG. 22C, 5 days incubation, read-out: IC50 (MDA-MB231 cells)
Protocol: (§1) The cells were incubated for 5 days in a humidified atmosphere at 37° C. and 5% CO2. […] After approximately 4 hours in a humidified atmosphere at 37° C. and 5% CO2 the fluorescence was detected with a fluorescence plate reader (Infinite® M1000 Tecan) at 560 nm excitation and 590 nm emission. The relative fluorescent units (RFU) were normalized to cell viability percentage by setting wells without cells at 0% viability and wells with untreated cells at 100% viability (see FIGS. 22A-22C).
(§2) After approximately 4 hours in a humidified atmosphere at 37° C. and 5% CO2 the fluorescence was detected with a fluorescence plate reader (Infinite® M1000 Tecan) at 560 nm excitation and 590 nm emission. The relative fluorescent units (RFU) were normalized to cell viability percentage by setting wells without cells at 0% viability and wells with untreated cells at 100% viability (see FIGS. 23A-23B).
as §1, with “24A-24B).” for “22A-22C).”

BT-474 cells = assay: In vitro cytotoxicity (Example 131); details: Homo sapiens, Table 8 / FIG. 22B, DAR8 ADCs and free payloads
Protocol: as §1

NCI-N87 (HER2 3+) cells = assay: In vitro cytotoxicity, resazurin cell viability (Examples 131-133); details: Homo sapiens, NCI-N87, 120 h; Table 8 / FIG. 22A, DAR8 ADCs and free payloads, 5 days incubation
Protocol: as §1, §2
as §1, with “24A-24B).” for “22A-22C).”

CO[C@@]12[C@H](COC(N)=O)C3=C(C(=O)C(C)=C(N)C3=O)N1C[C@@H]1N[C@@H]12 [Mitomycin (free payload), Mitomycin C]
IC50 (MDA-MB-231 (HER2−) cells): > 100 nM
IC50 (BT-474 cells): 905 nM
IC50 (NCI-N87 (HER2 3+) cells): 94 nM
